Results reported in PubChem BioAssay AID1996.
≈ marks a conversion by molar mass, not a printed value.

Conditions: buffer; pH 7.4; 200.0 µM

Compound	solubility kinetic [mg/mL]
Clc1ccc(Cn2ccnc2)cn1	0.0242 (≈ 125 µM)
CCC(=O)NC(c1ccc(C)cc1)c1ccc2cccnc2c1O (stereo not given)	0.0016 (≈ 4.99 µM)
Cl.Nc1ccc(-c2nc3c(ccc4ccccc43)[nH]2)cc1	> 0.0444
CCC1CN(C(=O)NCc2cccc(OC)c2)c2cc(Cl)ccc2O1 (stereo not given)	0.0045 (≈ 12.5 µM)
Cc1onc(C(=O)Nc2ccccc2C(F)(F)F)c1[N+](=O)[O-]	> 0.0473
COc1ccc(-c2c(C)nc(N)nc2-c2ccc(OC)cc2O)cc1	0.0074 (≈ 21.9 µM)
COc1ccccc1CC(=O)NC1CCCCCC1	0.0376 (≈ 144 µM)
Cc1ccc(NC(=O)Nc2ccc3c(c2)CCC3)c(C)c1	< 0.0003
CC(C)(C)NC(=O)Cn1c(SCC(=O)NC2CCCC2)nc2ccccc21	0.0529 (≈ 136 µM)
COc1cccc(C(=O)NCc2ccc3c(c2)OCO3)c1	0.037 (≈ 130 µM)
COC(=O)c1ccc(S(=O)(=O)N2CCC(C(N)=O)CC2)n1C	> 0.0494
CCOc1ccc(NC(=S)Nc2ccc(F)cc2)cc1	0.0083 (≈ 28.6 µM)
CC1=NC(C)(C)Cc2cc(C)c(C)cc21.Cl	> 0.0357
Cc1cc(OC(=O)c2ccc(F)cc2)c([N+](=O)[O-])c(=O)[nH]1	0.0432 (≈ 148 µM)
COC(=O)c1ccn(CC(=O)NC2CCCCC2)n1	> 0.0398
C=CCn1c(SCC(C)=O)nnc1-c1ccc2ncccc2c1	> 0.0487
COc1cccc(S(=O)(=O)Nc2ccc3c(c2)OCCO3)c1	> 0.0482
COc1ccc(NC(=S)NC(=O)C2CCCCC2)cc1	< 0.0003
COc1cccc(Oc2ccc(C(F)(F)F)cc2NC(=O)CN2C(=O)NC3(CCCC3)C2=O)c1	0.0027 (≈ 5.66 µM)
CC(=O)N1CCN(c2nc(N)c(C#N)c(CC#N)c2C#N)CC1	> 0.0464

Compound	solubility kinetic [mg/mL]
CN1CC(C(=O)c2ccccc2)C(c2ccccc2)C1 (stereo not given)	> 0.0398
Cc1ccc(S(=O)(=O)NC(C)C(=O)Nc2cccc([N+](=O)[O-])c2)cc1 (stereo not given)	0.0089 (≈ 24.5 µM)
O=C(O)c1ccc(OCC(F)(F)F)nc1	> 0.0332
COc1cc2c(cc1OC)C(C)N(S(=O)(=O)c1cn(C)c(C)n1)CC2 (stereo not given)	> 0.0548
CN(CC(=O)Nc1ccc(F)cc1)C(=O)CN1C(=O)NC2(CCCCC2)C1=O	0.0007 (≈ 1.79 µM)
Cc1c(C(=O)O)sc2nc(/C=C/c3cccc(O)c3)[nH]c(=O)c12	0.0355 (≈ 108 µM)
Cc1c(C(=O)Oc2cccc3cccnc23)cccc1[N+](=O)[O-]	0.0079 (≈ 25.6 µM)
CC1Cc2cc(/C=C3/SC(=S)N(C)C3=O)ccc2O1 (stereo not given)	< 0.0006
COc1ccc(C(C)C)cc1S(=O)(=O)NCC1CCCO1 (stereo not given)	0.0443 (≈ 141 µM)
Cc1ccc(C(=O)COC(=O)[C@@H](NC(=O)c2ccco2)C(C)C)s1	> 0.0524
C=CCNC(=O)c1ccccc1SCc1c(C)noc1C	> 0.0454
CC(CCn1cccn1)NC(=O)CCc1nnc(C2CCCCC2)o1 (stereo not given)	> 0.0518
O=C(COc1ccc(Br)cc1)NC1CC1	> 0.0405
CN(C)P(=O)(NC(=O)c1cccn1C)N(C)C	> 0.0387
Cc1nc(N)nc(Cl)c1Cc1ccc(Cl)cc1	0.0036 (≈ 13.4 µM)
Cc1cc(Cl)ccc1OC(C)C(=O)NCCCn1ccnc1 (stereo not given)	> 0.0483
COc1cccc(/C=N/NC(=O)c2ccc3nc[nH]c3c2)c1	> 0.0441
O=C(NCCc1ccc(Cl)cc1)C12CC3CC(CC(O)(C3)C1)C2	0.0469 (≈ 140 µM)
O=C(OCC(=O)N1CCN(C(=O)c2ccco2)CC1)c1cc(F)c(F)cc1Cl	> 0.0619

Second part, the molecule after the results:

solubility kinetic [mg/mL]	Compound
> 0.0498	Cc1c(Cl)cccc1NC(=O)CC(Cc1ccccc1)C(=O)O (stereo not given)
0.0337 (≈ 128 µM)	O=c1[nH]c(-c2ccccc2)ncc1Oc1ccccc1
> 0.0459	O=C(Nc1ccc(C(=O)O)cc1)Nc1cccc2ccccc12
> 0.0498	O=C(c1cc(Cl)ccc1OCc1ccccc1)N1CCOCC1
> 0.0637	O=C(CCc1nc(-c2ccc(F)cc2)no1)NCc1ccccc1CN1CCOCC1
0.0097 (≈ 34 µM)	CCc1cc(C(=O)N2CCCc3ccccc32)sc1C
0.0011 (≈ 4.21 µM)	CC(=O)n1c2ccccc2c2nc3ccccc3nc21
< 0.0004	O=C(COc1ccccc1Cl)Nc1ccc2c(c1)C(=O)NC2=O
> 0.0526	CCC(=O)N1c2ccccc2C(N(C(=O)CC)c2ccccc2)CC1C (stereo not given)
0.0036 (≈ 7.94 µM)	CN(c1ccccc1)S(=O)(=O)c1ccc(C(=O)N2CCN(c3ccccc3F)CC2)cc1
> 0.0474	CN1CCCN(S(=O)(=O)c2cccc(C#N)c2)CC1.Cl
> 0.0505	CCCN1CNc2c(c(=O)[nH]c(=S)n2-c2ccccc2Cl)C1
0.0387 (≈ 114 µM)	COc1ccc(N2CCN(C(=O)NC(=O)c3ccccc3)CC2)cc1
0.0053 (≈ 15.6 µM)	CCCCNC(=O)c1ccc2c(c1)N(C)C(=O)c1ccccc1S2
0.006 (≈ 22.5 µM)	Cc1ccc(-c2c[nH]c(=S)n2-c2ccccc2)cc1
0.0181 (≈ 46.5 µM)	O=C(c1ccco1)N1CCN(S(=O)(=O)c2cc(Cl)ccc2Cl)CC1
0.0126 (≈ 39 µM)	CN(C)C(=O)COc1ccc2c(-c3ccccc3)cc(=O)oc2c1
0.0376 (≈ 126 µM)	O=C(COc1cccc2cccnc12)NCc1cccs1
0.0421 (≈ 127 µM)	CN1CCN(CC#CCC2(O)c3ccccc3-c3ccccc32)CC1
0.0003 (≈ 0.869 µM)	Cc1ccccc1NC(=O)c1cccc(C(=O)Nc2ccccc2C)n1
> 0.0499	CN1CCN(CCOc2ccc(-c3ccccc3)cc2)CC1.Cl
